Where two headings read alike, the source gives them in different places.
How the values were obtained:
[1] = Phase I clinical trial pharmacokinetics; conditions: human, in vivo, po, 30 mg, 30 mg oral once daily
Excerpt: (§1) A Phase I Clinical Trial with Compound (I-c) was undertaken. A traditional 3+3 dose escalation design was implemented. […] Dose increases were dependent on toxicities.
(§2) The key entry criteria for this trial were: ER+/HER2− advanced breast cancer; at least two prior endocrine therapies in any setting, and a CDK4/6 inhibitor; and up to three prior cytotoxic chemotherapy regimens.
The initial pharmacokinetic results are shown below in Table 2, as well as in FIG. 3 and FIG. 4.

[2] = target: T1, rat uterine ER (Rattus norvegicus, UniProt P06211); assay: Immature rat uterotrophic model; assay type: in vivo
T1 construct: from tissue; host or cells: uterus of immature rats
T1 sequence (P06211 1-600): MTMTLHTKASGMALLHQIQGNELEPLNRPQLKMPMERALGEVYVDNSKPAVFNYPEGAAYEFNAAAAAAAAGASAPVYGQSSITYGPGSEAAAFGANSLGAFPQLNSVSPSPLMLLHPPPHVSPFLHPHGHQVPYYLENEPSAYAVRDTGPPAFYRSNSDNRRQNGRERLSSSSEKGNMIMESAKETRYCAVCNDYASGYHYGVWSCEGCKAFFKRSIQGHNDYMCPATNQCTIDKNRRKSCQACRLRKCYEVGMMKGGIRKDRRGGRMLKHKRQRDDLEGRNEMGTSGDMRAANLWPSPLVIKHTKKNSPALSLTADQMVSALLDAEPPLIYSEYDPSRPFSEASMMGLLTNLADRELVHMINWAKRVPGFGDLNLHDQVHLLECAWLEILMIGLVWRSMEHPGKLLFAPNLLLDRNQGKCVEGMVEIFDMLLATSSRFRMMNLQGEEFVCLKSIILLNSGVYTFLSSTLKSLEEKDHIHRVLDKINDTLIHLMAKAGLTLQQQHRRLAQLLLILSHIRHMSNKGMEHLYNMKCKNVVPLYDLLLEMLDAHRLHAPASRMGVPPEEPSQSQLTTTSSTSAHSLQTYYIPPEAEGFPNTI

[3] = Phase I dose escalation safety; assay type: in vivo, human; conditions: 30 mg/day cohort, n=3
Excerpt: as §1, §2

[4] = 28-day oral toxicology study in rats; assay type: in vivo; conditions: oral once daily 28 days
[5] = test system: MCF7 xenograft; assay: MCF7 orthotopic xenograft, combination with mTOR inhibitor everolimus; assay type: in vivo, NOD/SCID mice
Protocol: NOD/SCID female mice (Charles River, 6-7 weeks old upon arrival) were implanted with 17b-estradiol 0.72 mg 90-day pellets. The next day, each mouse was implanted with 5×10^6 MCF7 cells/[…] per in the axial mammary fat pad. Compound administration was initiated once the tumors reached 175-200 mm^3. Diet was supplemented with peanut butter to help maintain body weights. […] (FIG. 28 and Table 13).
Error bars represent standard deviation.
The ratio of Tween 80 to PEG-400 is 0.02 g Tween 80 to 1 ml PEG-400. PEG-400 is added to a pre-aliquoted volume of Tween 80. • For everolimus: 10% DMSO, 90% (2% Tween 80, PEG 400) (DMSO/PEG/Tween) Sampling: tumors were measured twice weekly. Terminal sacrifice was ˜18 hr after last dose. Tumor volume calculation: Tumor Volume=(width×width×length)/2, where all measurements are in mm and the tumor volume is in mm^3. Tumor Growth Inhibition (TGI) calculation: TGI (%)

[6] = Compound (I-c) 30 mg/kg oral QD x 26

## O=C1CC[C@H](N2Cc3cc(N4CCN(CC5CCN(c6ccc([C@@H]7c8ccc(O)cc8CC[C@@H]7c7ccccc7)cc6)CC5)CC4)ccc3C2=O)C(=O)N1 [Compound (I-c), (3S)-3-[5-[4-[[1-[4-[(1R,2S)-6-hydroxy-2-phenyl-tetralin-1-yl]phenyl]-4-piperidyl]methyl]piperazin-1-yl]-1-oxo-isoindolin-2-yl]piperidine-2,6-dione]
[1]; Phase I, read-out: Mean Day 1 AUCTAU
  AUC: 1690 ng·h/mL
[1]; Phase I, read-out: Mean Day 1 Cmax
  Cmax: 109 ng/mL
[1]; Phase I, read-out: Mean Day 15 Cmax
  Cmax: 224 ng/mL
[1]; calculated using imputed 24 hour values, read-out: Mean Day 15 AUCTAU
  AUC: 4100 ng·h/mL
[2]
  degradation of rat uterine ER: degrades
[2]; FIG. 17: 30 mg/kg once a day oral
  agonist activity (uterine weight): no agonist activity
[3]
  dose limiting toxicity: no dose limiting toxicity
  treatment related adverse events: no treatment related adverse events
[4]; doses up to 100 mg/kg/day
  clinical signs of toxicity: no clinical signs of toxicity
[4]; up to 100 mg/kg/day
  effects on overall animal health or well-being: no effects on the overall animal health or well-being
[5]; [6]
  Day 26 Tumor Volume (mean ± SD): 169 ± 77 mm^3
  TGI (% vehicle): 102 % vehicle
[5]; single agent 30 mg/kg oral once daily, 26 days
  tumor growth inhibition (TGI): 102%

Source: patent US20220193072A1, “METHODS OF TREATING BREAST CANCER WITH TETRAHYDRONAPHTHALENE DERIVATIVES AS ESTROGEN RECEPTOR DEGRADER” (Arvinas Operations, Inc., priority 2020, published 2022)
